Tests used:
human Cav3.2 = human Cav3.2 (Homo sapiens, UniProt O95180); type: cell-based
human Cav2.2/β3/α2δ1 [1] = target: T1, human Cav2.2/β3/α2δ1 (Homo sapiens, UniProt Q00975); type: cell-based
human Cav2.2/β3/α2δ1 [2] = target: T1, human Cav2.2/β3/α2δ1; assay: IonWorks Barracuda repetitive test pulse train; type: cell-based; details: Cav2.2, 30 pulse train 0.1 Hz
human Cav1.2/β2/α2δ1 = human Cav1.2/β2/α2δ1 (Homo sapiens, UniProt Q13936)
human Cav2.1/β4/α2δ1 = human Cav2.1/β4/α2δ1 (Homo sapiens, UniProt O00555); type: cell-based

human Cav3.2, sequence (O95180 whole entry): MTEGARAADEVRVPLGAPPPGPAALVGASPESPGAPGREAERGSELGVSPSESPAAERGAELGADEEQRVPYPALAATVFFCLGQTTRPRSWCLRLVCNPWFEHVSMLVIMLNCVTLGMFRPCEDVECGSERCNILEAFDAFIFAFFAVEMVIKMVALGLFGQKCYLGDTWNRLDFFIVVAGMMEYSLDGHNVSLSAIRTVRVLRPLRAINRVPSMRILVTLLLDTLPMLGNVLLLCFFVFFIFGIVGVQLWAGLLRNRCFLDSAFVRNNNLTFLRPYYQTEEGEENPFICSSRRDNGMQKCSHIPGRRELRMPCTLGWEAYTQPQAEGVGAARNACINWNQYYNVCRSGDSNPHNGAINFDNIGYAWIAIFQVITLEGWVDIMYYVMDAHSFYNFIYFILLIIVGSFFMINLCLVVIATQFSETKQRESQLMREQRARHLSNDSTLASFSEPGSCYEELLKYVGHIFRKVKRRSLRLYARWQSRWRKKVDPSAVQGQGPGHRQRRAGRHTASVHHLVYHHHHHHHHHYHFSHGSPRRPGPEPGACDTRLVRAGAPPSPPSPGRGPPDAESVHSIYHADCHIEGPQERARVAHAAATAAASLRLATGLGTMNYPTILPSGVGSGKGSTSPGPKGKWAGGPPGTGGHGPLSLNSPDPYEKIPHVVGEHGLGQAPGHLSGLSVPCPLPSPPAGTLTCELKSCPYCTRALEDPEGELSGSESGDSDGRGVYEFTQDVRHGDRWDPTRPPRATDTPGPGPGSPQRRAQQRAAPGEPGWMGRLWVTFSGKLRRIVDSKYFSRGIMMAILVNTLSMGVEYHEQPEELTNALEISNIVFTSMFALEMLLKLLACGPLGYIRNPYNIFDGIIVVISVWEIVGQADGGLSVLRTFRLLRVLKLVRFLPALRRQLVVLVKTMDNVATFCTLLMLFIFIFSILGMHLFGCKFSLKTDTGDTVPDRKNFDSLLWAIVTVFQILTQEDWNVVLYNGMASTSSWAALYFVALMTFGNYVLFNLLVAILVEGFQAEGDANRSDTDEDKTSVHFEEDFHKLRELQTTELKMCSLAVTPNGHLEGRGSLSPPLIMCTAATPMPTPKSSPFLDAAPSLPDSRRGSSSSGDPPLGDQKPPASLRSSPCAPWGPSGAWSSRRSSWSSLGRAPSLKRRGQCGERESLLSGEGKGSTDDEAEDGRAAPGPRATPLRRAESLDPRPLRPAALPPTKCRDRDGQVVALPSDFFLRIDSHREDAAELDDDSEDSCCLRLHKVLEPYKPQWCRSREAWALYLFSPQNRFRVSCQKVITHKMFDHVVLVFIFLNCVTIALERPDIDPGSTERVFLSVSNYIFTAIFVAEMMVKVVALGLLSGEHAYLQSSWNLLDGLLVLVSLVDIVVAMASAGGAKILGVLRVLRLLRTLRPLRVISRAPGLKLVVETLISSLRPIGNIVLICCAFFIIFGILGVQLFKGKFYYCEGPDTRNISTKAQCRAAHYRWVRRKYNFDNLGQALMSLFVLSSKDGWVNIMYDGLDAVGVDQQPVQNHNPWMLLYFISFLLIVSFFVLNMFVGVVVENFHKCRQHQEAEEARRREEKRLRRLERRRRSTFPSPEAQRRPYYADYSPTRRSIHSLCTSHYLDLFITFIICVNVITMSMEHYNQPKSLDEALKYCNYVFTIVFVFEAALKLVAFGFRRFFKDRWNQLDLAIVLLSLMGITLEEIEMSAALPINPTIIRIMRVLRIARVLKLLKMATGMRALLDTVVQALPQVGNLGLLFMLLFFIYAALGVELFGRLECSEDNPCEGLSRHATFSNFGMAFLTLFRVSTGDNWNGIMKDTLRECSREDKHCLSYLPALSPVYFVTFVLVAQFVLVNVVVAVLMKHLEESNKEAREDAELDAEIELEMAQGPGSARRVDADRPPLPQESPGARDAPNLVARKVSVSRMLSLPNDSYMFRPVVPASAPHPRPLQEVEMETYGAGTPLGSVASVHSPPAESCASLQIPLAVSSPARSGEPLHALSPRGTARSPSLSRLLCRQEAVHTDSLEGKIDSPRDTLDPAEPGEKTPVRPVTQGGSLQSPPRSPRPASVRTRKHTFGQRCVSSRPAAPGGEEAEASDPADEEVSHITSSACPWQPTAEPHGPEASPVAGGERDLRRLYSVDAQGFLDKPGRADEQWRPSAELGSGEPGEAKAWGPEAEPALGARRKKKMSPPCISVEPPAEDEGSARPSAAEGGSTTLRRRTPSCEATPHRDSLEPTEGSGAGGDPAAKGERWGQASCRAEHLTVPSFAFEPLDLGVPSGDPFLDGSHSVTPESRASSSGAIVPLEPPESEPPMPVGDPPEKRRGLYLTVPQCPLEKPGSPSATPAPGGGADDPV

## COCC(=O)O[C@]1(CCN(C)CCCc2nc3ccccc3[nH]2)CCc2cc(F)ccc2[C@@H]1C(C)C [Mibefradil, mibefradil]
Human Cav3.2; use-dependent block, multiple mode assay
  potency of use-dependent block in Cav3.2 versus Cav1.2: fourfold more potent
Human Cav2.2/β3/α2δ1 [1]; current traces Fig. 5B, 10 μM mibefradil, 30 μM verapamil
  Cav2.2 blocking characteristics in multiple mode assay: use-dependent, but not inactivation-dependent block augmentation
Human Cav2.2/β3/α2δ1 [2]
  potency of inhibition at TP30 compared with TP1: about seven times more potent

## COC(=O)C1=C(C)NC(C)=C([N+](=O)[O-])[C@H]1c1ccccc1C(F)(F)F [BAY K8644, (S)-(−)-BAY K8644]
Human Cav3.2; concentrations ≥10 μM
  effect on Cav3.2 at high concentration: nonspecific inhibition
Human Cav2.2/β3/α2δ1 [1]; concentrations ≥10 μM
  effect on Cav2.2 at high concentration: nonspecific inhibition
Human Cav1.2/β2/α2δ1; 0.3 μM, test pulse 10 mV, holding −90 mV, 60-s CP to −50 mV
  effect on Cav1.2 currents: potentiated
Human Cav1.2/β2/α2δ1; concentrations ≥10 μM
  effect on Cav1.2 at high concentration: nonspecific inhibition
Human Cav1.2/β2/α2δ1; dose–response, Fig. 2B
  extent of potentiation of Cav1.2 channels: twofold potentiation
Human Cav2.1/β4/α2δ1; concentrations ≥10 μM
  effect on Cav2.1 at high concentration: nonspecific inhibition

## O=c1[nH]c2ccccc2n1C1CCN(CCCC(c2ccc(F)cc2)c2ccc(F)cc2)CC1 [Pimozide, pimozide]
Human Cav2.2/β3/α2δ1 [1]
  IC50: > 30 µM
Human Cav2.1/β4/α2δ1
  IC50: > 30 µM

## COC(=O)C1=C(C)NC(C)=C(C(=O)OC)C1c1ccccc1[N+](=O)[O-] [Nifedipine, nifedipine]
Human Cav3.2; concentrations up to 3 μM (not shown)
  sensitivity of Cav3.2 channels: insensitive

Reference: publication PMC4657039 (Assay and Drug Development Technologies, 2014)
